Laboratory results from patent US10392368B2, “Pyrazolo and triazolo bicyclic compounds as JAK kinase inhibitors” (THERAVANCE BIOPHARMA R&D IP, LLC, priority 2017, dated 2019).
Read-outs that look alike come from different tables or passages of the source.

Experiments:
JAK3 = biological target: T1, JAK3 (Homo sapiens, UniProt P52333); experiment: Biochemical JAK3 kinase assay (LanthaScreen); design: GST; purchased Life Technologies; details: for Ki: read-out: JAK 3 (pKi) (converted)
T1 sequence (P52333 1-1124): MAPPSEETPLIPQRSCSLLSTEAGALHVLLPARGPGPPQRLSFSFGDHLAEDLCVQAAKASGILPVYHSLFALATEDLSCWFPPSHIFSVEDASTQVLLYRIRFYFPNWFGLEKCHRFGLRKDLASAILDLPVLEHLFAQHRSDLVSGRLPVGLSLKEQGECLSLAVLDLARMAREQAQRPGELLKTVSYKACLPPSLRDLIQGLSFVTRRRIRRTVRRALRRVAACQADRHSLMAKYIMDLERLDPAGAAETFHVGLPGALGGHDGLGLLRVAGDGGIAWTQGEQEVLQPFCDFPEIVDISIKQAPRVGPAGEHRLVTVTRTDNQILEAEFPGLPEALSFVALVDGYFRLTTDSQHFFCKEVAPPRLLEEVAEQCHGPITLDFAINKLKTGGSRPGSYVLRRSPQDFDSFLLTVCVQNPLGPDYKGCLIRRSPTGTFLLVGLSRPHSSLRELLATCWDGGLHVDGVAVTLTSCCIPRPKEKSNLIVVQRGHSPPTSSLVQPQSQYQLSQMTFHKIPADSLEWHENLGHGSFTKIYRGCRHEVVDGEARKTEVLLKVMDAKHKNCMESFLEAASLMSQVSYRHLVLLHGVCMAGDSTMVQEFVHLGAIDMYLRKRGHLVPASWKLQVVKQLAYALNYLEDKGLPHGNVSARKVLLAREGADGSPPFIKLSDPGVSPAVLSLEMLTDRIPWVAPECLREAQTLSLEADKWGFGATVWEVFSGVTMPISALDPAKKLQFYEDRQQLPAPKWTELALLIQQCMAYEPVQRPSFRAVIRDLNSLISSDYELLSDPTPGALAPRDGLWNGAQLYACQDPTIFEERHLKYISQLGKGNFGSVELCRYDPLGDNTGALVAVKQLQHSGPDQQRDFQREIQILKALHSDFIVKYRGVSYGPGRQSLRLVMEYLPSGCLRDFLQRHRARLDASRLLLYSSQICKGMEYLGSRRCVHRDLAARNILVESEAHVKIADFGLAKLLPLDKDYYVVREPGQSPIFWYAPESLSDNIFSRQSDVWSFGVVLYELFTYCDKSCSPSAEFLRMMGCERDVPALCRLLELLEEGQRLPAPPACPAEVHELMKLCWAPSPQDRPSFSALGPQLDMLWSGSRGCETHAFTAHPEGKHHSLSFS
Procedure: (§1) A panel of four LanthaScreen JAK biochemical assays (JAK1, 2, 3 and Tyk2) were carried in a common kinase reaction buffer (50 mM HEPES, pH 7.5, 0.01% Brij-35, 10 mM MgCl2, and 1 mM EGTA). Recombinant GST-tagged JAK enzymes and a GFP-tagged STAT1 peptide substrate were obtained from Life Technologies.
(§2) Serially or discretely diluted compounds were pre-incubated with each of the four JAK enzymes and the substrate in white 384-well microplates (Corning) at ambient temperature for 1 h. ATP was subsequently added to initiate the kinase reactions in 10 μL total volume, with 1% DMSO. […] Kinase reactions were allowed to proceed for 1 hour at ambient temperature before a 10 μL preparation of EDTA (10 mM final concentration) and Tb-anti-pSTAT1 (pTyr701) antibody (Life Technologies, 2 nM final concentration) in TR-FRET dilution buffer (Life Technologies) was added. The plates were allowed to incubate at ambient temperature for 1 h before being read on the EnVision reader (Perkin Elmer). Emission ratio signals (520 nm/495 nm) were recorded and utilized to calculate the percent inhibition values based on DMSO and background controls.
(§3) For dose-response analysis, percent inhibition data were plotted vs. compound concentrations, and IC50 values were determined from a 4-parameter robust fit model with the Prism software (GraphPad Software). Results were expressed as pIC50 (negative logarithm of IC50) and subsequently converted to pKi (negative logarithm of dissociation constant, Ki) using the Cheng-Prusoff equation.

JAK1 = biological target: T2, JAK1 (Homo sapiens, UniProt P23458); experiment: Biochemical JAK1 kinase assay (LanthaScreen); details: for Ki: read-out: JAK 1 (pKi) (converted)
T2 construct: GST; purchased Life Technologies
T2 sequence (P23458 whole entry): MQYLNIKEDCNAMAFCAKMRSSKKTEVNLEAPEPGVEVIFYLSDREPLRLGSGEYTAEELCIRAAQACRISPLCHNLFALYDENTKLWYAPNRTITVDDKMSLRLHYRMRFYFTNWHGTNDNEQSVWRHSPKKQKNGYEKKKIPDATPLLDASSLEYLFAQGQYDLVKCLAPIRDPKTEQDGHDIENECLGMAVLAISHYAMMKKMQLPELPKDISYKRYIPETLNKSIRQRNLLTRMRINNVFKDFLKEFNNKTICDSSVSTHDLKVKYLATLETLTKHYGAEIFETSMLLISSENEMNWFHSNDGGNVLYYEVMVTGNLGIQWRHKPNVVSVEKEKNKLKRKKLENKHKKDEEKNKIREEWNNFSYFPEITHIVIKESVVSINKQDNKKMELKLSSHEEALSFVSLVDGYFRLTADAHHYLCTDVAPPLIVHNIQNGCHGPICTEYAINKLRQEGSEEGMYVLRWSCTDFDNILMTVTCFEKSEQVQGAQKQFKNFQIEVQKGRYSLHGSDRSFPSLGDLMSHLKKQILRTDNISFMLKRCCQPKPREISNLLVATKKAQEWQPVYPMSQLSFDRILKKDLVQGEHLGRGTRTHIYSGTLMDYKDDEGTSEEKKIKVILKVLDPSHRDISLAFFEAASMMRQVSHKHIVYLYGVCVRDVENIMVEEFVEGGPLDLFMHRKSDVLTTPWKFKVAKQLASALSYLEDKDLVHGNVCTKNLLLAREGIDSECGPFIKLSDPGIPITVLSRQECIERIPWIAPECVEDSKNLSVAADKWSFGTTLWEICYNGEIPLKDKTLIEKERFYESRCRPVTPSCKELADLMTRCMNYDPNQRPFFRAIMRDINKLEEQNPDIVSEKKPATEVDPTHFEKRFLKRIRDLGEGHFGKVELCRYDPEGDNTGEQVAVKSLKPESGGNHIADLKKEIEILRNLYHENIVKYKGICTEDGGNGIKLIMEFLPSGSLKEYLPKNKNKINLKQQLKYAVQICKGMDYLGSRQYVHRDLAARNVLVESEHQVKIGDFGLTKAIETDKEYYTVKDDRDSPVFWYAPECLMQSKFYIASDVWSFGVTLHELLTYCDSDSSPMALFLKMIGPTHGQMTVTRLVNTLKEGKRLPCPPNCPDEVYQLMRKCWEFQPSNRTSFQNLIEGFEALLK
Procedure: as §1, §2, §3

[1] = system: IL-2 stimulated pSTAT5 in Tall-1 T cells; experiment: Cellular JAK3 potency assay: inhibition of IL-2 stimulated pSTAT5 in Tall-1 T cells; assay type: cell-based, human; details: for IC50: Homo sapiens, read-out: Tall-1 (pIC50) (converted)
Procedure: The potency of test compounds for inhibition of interleukin-2 (IL-2) stimulated STAT5 phosphorylation was measured in the Tall-1 human T cell line (DSMZ) using AlphaLisa. Because IL-2 signals through JAK3, this assay provides a measure of JAK3 cellular potency.
Compounds were serially diluted in DMSO and dispensed acoustically to empty wells. Assay media (phenol red-free DMEM (Life Technologies) supplemented with 10% FBS (ATCC)) was dispensed (4 μL/well) and plates shaken at 900 rpm for 10 mins. Cells were seeded at 45,000 cells/well in assay media (4 μL/well), and incubated at 37° C., 5% CO2 for 1 hour, followed by the addition of IL-2 (R&D Systems; final concentration 300 ng/ml) in pre-warmed assay media (4 μL) for 30 minutes. After cytokine stimulation, cells were lysed with 6 ul of 3× AlphaLisa Lysis Buffer (PerkinElmer) containing 1× PhosStop and Complete tablets (Roche). The lysate was shaken at 900 rpm for 10 minutes at room temperature (RT). Phosphorylated STAT5 was measured via the pSTAT5 AlphaLisa kit (PerkinElmer). Freshly prepared acceptor bead mixture was dispensed onto lysate (5 μL) under green filtered <100 lux light. Plates were shaken at 900 rpm for 2 mins, briefly spun down, and incubated for 2 hrs at RT in the dark. Donor beads were dispensed (5 μL) under green filtered <100 lux light. Plates were shaken at 900 rpm for 2 minutes, briefly spun down, and incubated overnight at RT in the dark.
To determine the inhibitory potency of test compounds in response to IL-2, the average emission intensity of beads bound to pSTAT5 was measured in a human T cell line. IC50 values were determined from analysis of the inhibition curves of signal intensity versus compound concentration. Data are expressed as pIC50 (negative decadic logarithm IC50) values (mean±standard deviation).

[2] = selectivity: difference of pKi JAK3 and pKi JAK1
[3] = TALL-1, IL-2 stimulated pSTAT5 in Tall-1 T cells
[4] = selectivity JAK3 over JAK1, difference of pKi
[5] = IL-2 stimulated pSTAT5, Tall-1 T cells
[6] = TALL-1, IL-2 stimulated pSTAT5, Tall-1 T cells

Compound	Ki (JAK3) [nM]	JAK3 (pKi)-JAK1 (pKi) (JAK3; [2])	Ki (JAK1) [nM]	IC50 [1, 3] [nM]	JAK 3 (pKi) (JAK3)	JAK3 (pKi)-JAK1 (pKi) (JAK3; [4])	JAK 1 (pKi) (JAK1)	Tall-1 (pIC50) [1, 5]	Tall-1 (pIC50) ([1]; IL-2 stimulated pSTAT5 in Tall-1 T cells)	IC50 [1, 6] [nM]
CN1CCC[C@@H]1/C=C/C(=O)N1CC[C@H](Oc2cc(-c3ccc(O)cc3)cc3[nH]ncc23)C1 [Compound 15, (E)-1-((S)-3-((6-(4-hydroxyphenyl)-1H-indazol-4-yl)oxy)pyrrolidin-1-yl)-3-((R)-1-methylpyrrolidin-2-yl)prop-2-en-1-one]	0.1 to 1	A (a value of 3 or above)	> 100	200 to 1000	–	–	–	–	–	–
C=CC(=O)N1CC[C@H](Oc2cc(-c3ccc(O)cc3)cc3[nH]nc(C(F)(F)F)c23)C1 [Compound 1-43]	< 0.1	A (a value of 3 or above)	> 100	< 31.6	–	–	–	–	–	–
C=CC(=O)N1CCC(COc2nc(-c3ccc(O)c(Cl)c3)cc3[nH]ncc23)CC1 [Compound 14-7]	–	–	–	–	A (a pKi value≥10 (Ki≤0.1 nM))	B (a value of 2.3 to 3)	D (a pKi value between 7 and 8 (Ki between 100 nM and 10 nM))	A (a pIC50 value≥7.5 (IC50≤32 nM))	–	–
C=CC(=O)N1CC(COc2cc(-c3ccc(O)cc3)cc3[nH]nc(Cl)c23)C1 [Compound 18-14]	–	–	–	–	B (a pKi value between 9 and 10 (Ki between 1 nM and 0.1 nM))	A (a value of 3 or above)	E (a pKi value of 7 or below (Ki of 100 nM or above))	B (a pIC50 value between 6.7 (included) and 7.5 (IC50 between 200 nM and 32 nM))	–	–
C=CC(=O)N1C2CCC1CC(Oc1nc(-c3ccc(O)cc3)nc3[nH]ncc13)C2 (stereo not drawn) [Compound 9-11]	–	–	–	–	A (a pKi value≥10 (Ki≤0.1 nM))	A (a value of 3 or above)	E (a pKi value of 7 or below (Ki of 100 nM or above))	B (a pIC50 value between 6.7 (included) and 7.5 (IC50 between 200 nM and 32 nM))	–	–
CN(C)C/C=C/C(=O)N1CC(N(C)c2cc(-c3ccc(O)cc3)cc3[nH]ncc23)C1 [Compound 5-8]	–	A (a value of 3 or above)	–	–	B (a pKi value between 9 and 10 (Ki between 1 nM and 0.1 nM))	–	E (a pKi value of 7 or below (Ki of 100 nM or above))	–	C (a pIC50 value between 6 and 6.7 (IC50 between 1 μM and 200 nM))	–
CN(C)C/C=C/C(=O)N1CC[C@H]1COc1cc(-c2ccc(O)cc2)cc2[nH]ncc12 [Compound 12-24]	0.1 to 1	–	> 100	–	–	A (a value of 3 or above)	–	–	–	200 to 1000
CN(C)C/C=C/C(=O)N1CC2(CC(Oc3nc(-c4ccc(O)cc4)cc4[nH]ncc34)C2)C1 [Compound 15-6]	–	–	–	–	A (a pKi value≥10 (Ki≤0.1 nM))	B (a value of 2.3 to 3)	D (a pKi value between 7 and 8 (Ki between 100 nM and 10 nM))	C (a pIC50 value between 6 and 6.7 (IC50 between 1 μM and 200 nM))	–	–
C=CC(=O)N1CC(Oc2cc(-c3ccc(O)cc3)cc3[nH]ncc23)(C(F)(F)F)C1 [Compound 5-26]	–	–	–	–	B (a pKi value between 9 and 10 (Ki between 1 nM and 0.1 nM))	B (a value of 2.3 to 3)	E (a pKi value of 7 or below (Ki of 100 nM or above))	C (a pIC50 value between 6 and 6.7 (IC50 between 1 μM and 200 nM))	–	–
C=CC(=O)N1CC[C@H](Oc2cc(-c3ccc(O)cc3)cc3[nH]nc(N(C)C)c23)C1 [Compound 1-42]	0.1 to 1	A (a value of 3 or above)	> 100	200 to 1000	–	–	–	–	–	–
CN(C)C/C=C/C(=O)N1CC[C@H](Oc2cc(-c3ccc(O)c(Cl)c3)cc3[nH]ncc23)C1 [Compound 1-3]	0.1 to 1	A (a value of 3 or above)	> 100	31.6 to 200	–	–	–	–	–	–
CN(C)C/C=C/C(=O)N1CC2(CC(Oc3cc(-c4ccc(O)cc4)cc4[nH]ncc34)C2)C1 [Compound 12-52]	0.1 to 1	–	10 to 100	–	–	B (a value of 2.3 to 3)	–	–	–	200 to 1000
C=CC(=O)N1CC[C@@H]1COc1cc(-c2ccc(O)cc2)cc2[nH]ncc12 [Compound 12-23]	0.1 to 1	–	> 100	–	–	A (a value of 3 or above)	–	–	–	31.6 to 200
C=CC(=O)N1CC[C@H]1C(=O)Nc1cc(-c2ccc(O)cc2)cc2[nH]ncc12 [Compound 12-69]	< 0.1	–	> 100	–	–	A (a value of 3 or above)	–	–	–	31.6 to 200
C=CC(=O)N1CC(OCc2cc(-c3ccc(O)cc3)nc3[nH]ncc23)C1 [Compound 16-4]	–	–	–	–	B (a pKi value between 9 and 10 (Ki between 1 nM and 0.1 nM))	A (a value of 3 or above)	E (a pKi value of 7 or below (Ki of 100 nM or above))	B (a pIC50 value between 6.7 (included) and 7.5 (IC50 between 200 nM and 32 nM))	–	–
